Data as given in US7855188B2, “Quarternized amino glucosamine compound for exerting anticancer effect” (Pukyong National University Industry-Academic Cooperation …, priority 2006, dated 2010).

Tests used:
[1] = test system: colon cancer cell (SW480), lung cancer cell (A549), mouse melanoma cell (B16F1), leukemia cancer cell (HL60) and liver cancer cell (Hep3B); assay: MTT cell viability assay on various cancer cells; type: cell-based; settings: after 36 h of treatment; effect concentration dependent; serum free media
Protocol: (§1) In order to assay the cell cytotoxicity of glucosamine and quaternized amino glucosamine on colon cancer cell (SW480), lung cancer cell (A549), mouse melanoma cell (B16F1), leukemia cancer cell (HL60) and liver cancer cell (Hep3B), MTT assay was performed with different sample concentrations and incubation time intervals.
(§2) Cells were cultured in microtiter 96-well plates with serum free media and treated with different sample concentrations for varying time intervals and anticancer effect was assessed using MTT cell viability assay. The result was represented in FIG. 2. […] Moreover, the effect was concentration dependent.

B16F1 cells [2] = assay: MTT cytotoxicity assay in B16F1 cells; type: cell-based, mouse; settings: after 48 h of incubation, concentrations below 0.01%
Protocol: as §1, §2
B16F1 cells were treated with different concentrations of quaternized amino glucosamine and cytotoxicity was determined using MTT assay. […] This effect could be confirmed when the B16F1 cells were transfected with promoter plasmids of p53 and p21 treated with different concentrations of QAGlc. Induction of phosphor p53 observed in western blot analysis further confirmed that quaternized amino glucosamine induce apoptosis via p53 dependant pathway.

B16F1 cells [3] = assay: Detection of apoptosis by DNA fragmentation assay; type: cell-based, mouse
Protocol: In order to examine anticancer effect and mechanism of QAGlc, B16F1 cells cultured in 10 cm culture dishes were pre-treated with different concentrations of QAGlc and apoptosis was induced with 2 mM H2O2. Then, cell incubation was performed for different time periods. Cell was rinsed and total DNA was extracted with the standard procedure. DNA was electrophoresed on a 2% agarose gel and DNA fraction was visualized using ethedium bromide staining. The result was represented in FIG. 3.
B16F1 cells cultured in 10 cm culture dishes were pretreated with different concentrations of QAGlc and apoptosis was induced with 2 mM H2O2. After incubating for 48 h, genomic DNA was extracted and electrophoresed on a 2% agarose gel. The result was represented in FIG. 4.

p53 = assay: RT-PCR of p53 mRNA; type: cell-based, mouse; settings: B16F1 cells
Protocol: (§3) B16F1 cells were treated with QAGlc and total RNA was extracted. PCR was carried out using RT-generated cDNA encoding p53, p21 and GSPDH with their specific primers to amplify p53 and G3PDH mRNA. PCR products were analyzed on a 2% agarose gel. The mRNA of G3PDH served as an internal control for sample loading and mRNA integrity. The result was represented in FIG. 5.

p21 = assay: RT-PCR of p21 mRNA; type: cell-based, mouse; settings: B16F1 cells; time dependant
Protocol: as §3

p53 gene = assay: p53-luc gene reporter assay; type: cell-based, mouse; settings: B16F1 cells
Protocol: (§4) B16F1 cells were transfected with p53-luc, p21-Luc reporter vectors and β-galactosidase expression vector by lipofectamine (Invitrogen) transfection method. After 24 h of transfection, cells were subcultured into 24 well plates and cells treated with different concentrations of QAGlc. The luciferase activity value was normalized to transfection efficiency monitored by the cotransfected β-galactosidase expression vector. The level of induction of luciferase was determined as a ratio in comparison to cells with no stimulation. The result was represented in FIG. 6.

p21 gene = assay: p21-Luc gene reporter assay; type: cell-based, mouse; settings: B16F1 cells; all concentrations; compared to the control
Protocol: as §4
According to the method described above, p21 gene was transfected to B16F1 cells according to the method described above and gene expression after the treatment of QAGlc was determined by relative luciferase activity. The result was represented in FIG. 7.

phospho p53 protein = assay: Western blot analysis of phospho p53; type: cell-based, mouse; settings: B16F1 cells; different time intervals
Protocol: After treatment of QAGlc for different time intervals, cells were lysed in RIPA buffer [10 mmol Tris-HCL (pH 7.4), 1% deoxycholate, 1% NP40, 150 mmol NaCl, 0.1% SDS, 0.2 mmol phenylmethyl sulfonyl fluoride, 1 mg/L aprotinin and 1 mg/L leupeptin] for 30 min on ice. The lysates were centrifuged at 12,000×g for 15 min to remove debris. Protein samples were resolved using a […] Novex gradient gel (Invitrogen, USA), electrotransferred onto a nitrocellulose membrane, and blocked with 10% skim milk. Monoclonal antibodies of phosphorylated p-53 (Cat. No, Chemicon, CA, USA) were used to detect phosphor-p53 protein using chemiluminescent ECL assay kit (Amersham Pharmacia Biosciences, NJ, USA) according to the manufacturer's instructions. Western blot bands were quantified using ImageMaster software (Amersham Pharmacia Biosciences, NJ, USA). The result was represented in FIG. 8.

B16F1 cells [4] = assay: FACS analysis of apoptotic cells; type: cell-based, mouse
[5] = after 24 h and 36 h of incubation

With `C[N+](C)(C)CC(O)CNC1[C@H](O)OC(CO)[C@@H](O)[C@H]1O` (stereo partly drawn) [QAGlc, quaternized amino glucosamine] the “anticancer effect (cell cytotoxicity, MTT)” value [1] was “clear anticancer effect”, the “anticancer effect (cytotoxicity, MTT)” value (B16F1 cells [2]) was “clear anticancer effect was observed” and the “incubation time after which DNA damage was first observed” value (B16F1 cells [3]; 100 μg/ml, apoptosis induced with 2 mM H2O2) was 36 h. The “DNA damage (DNA fragmentation)” value (B16F1 cells [3]; 48 h incubation, 100 μg/ml) was “higher DNA damage”, the “DNA damage (DNA fragmentation)” value (B16F1 cells [3]; 48 h incubation, different concentrations, 2 mM H2O2) was “higher DNA damage dose-dependently” and the “DNA damage (DNA fragmentation)” value (B16F1 cells [3]; prolonged incubation (after 36 h), all tested concentrations) was “clear effect DNA damage by all the tested concentrations dose-dependently”. For the same compound, the p53 transcription (p53; [5]) was “up-regulated”, the “p53 transcription compared with etoposide” value (p53; [5]) was “much higher than that of etoposide” and the “induction of p53 gene (RT-PCR products)” value (p53; time dependant) was “induction of p53 and p21 genes in time dependant manner”. For the same compound, the “induction of p21 gene (RT-PCR products)” value (p21) was “induction of p53 and p21 genes in time dependant manner”, the “p53 gene expression effect relative to etaposide” value (p53 gene; 100 μg/ml) was 2 fold and the “p53 gene expression (luciferase reporter)” value (p53 gene; different concentrations) was “up-regulated dose dependently”. The “p21 gene expression (relative luciferase activity)” value (p21 gene) was “significantly enhanced”, the “phospho p53 protein level” value (phospho p53 protein) was “increase phospho p53 protein level in a time dependant manner” and the “production of apoptotic cells” value (B16F1 cells [4]) was “increase the production of apoptotic cells”.
